Like-named read-outs stand apart in the source and are kept apart here.
Molecular target: T1, recombinant human LXRβ-LBD-GST (Homo sapiens, UniProt P55055)
T1 construct: The LBD of LXRα or LXRβ was amplified by PCR and sub-cloned into the prokaryotic expression vector pGEX-4T-1; made in house; host or cells: E. coli
T1 sequence (P55055 222-460 limits assumed): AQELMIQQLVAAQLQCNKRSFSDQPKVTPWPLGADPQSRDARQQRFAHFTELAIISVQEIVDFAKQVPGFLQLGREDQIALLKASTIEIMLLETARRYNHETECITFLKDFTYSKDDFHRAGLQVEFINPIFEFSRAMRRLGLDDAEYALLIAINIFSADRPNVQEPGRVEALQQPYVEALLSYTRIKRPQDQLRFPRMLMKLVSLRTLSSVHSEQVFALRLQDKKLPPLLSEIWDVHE
Test: Radioligand competition binding scintillation proximity assay (SpA), LXRβ
Excerpt: Radioligand Competition Binding Scintillation Proximity Assay (SpA) Using Recombinant Human LXRα or LXRβ Protein
These assays utilise the purified ligand binding domain (LBD) of Liver X Receptor alpha (LXRα) or Liver X Receptor beta (LXRβ) fused to […] (GST) tagged protein (LXRα-LBD-GST and LXRβ-LBD-GST respectively) and scintillation proximity assay (SpA) technology to determine binding affinities (pKi) of compounds at the ligand binding domain (LBD) of the human nuclear hormone receptor LXRα or LXRβ.
Preparation of Recombinant Human LXRα and LXRβ
Human LXRα and LXRβ were expressed as GST-fusion proteins in E. coli.
The LBD of LXRα or LXRβ was amplified by PCR and sub-cloned into the prokaryotic expression vector pGEX-4T-1 (GE Healthcare). […] E. coli, containing either the LXRα or LXRβ pGEX-4T-1 plasmid, were propagated, induced, and harvested by centrifugation. The bacterial pellets were resuspended in lysis buffer containing 50 mM tris(Hydroxymethyl)aminomethane (TRIS)-pH 8.0, 100 mM Sodium Chloride (NaCl), 1 mM ethylenediaminetetraacetic acid (EDTA) and one tablet of Proteinase inhibitor cocktail complete/EDTA free (Roche) (per 50 mL of buffer). The mixtures were sonicated on ice with a Branson sonifier. The suspensions were centrifuged and dithiothreitol (DTT) added to the supernatants to obtain a final concentration of 25 mM. […] Proteins were stored in 20 mM N2-hydroxyethylpiperazine-N′-2-ethanesulfonic acid (HEPES), 2 mM DTT with 10% glycerol at −80° C.
Binding to LXRα or LXRβ LBDs
For LXRα or LXRβ assays, an aliquot of recombinant human LXRα-LBD-GST or LXRβ-LBD-GST protein was diluted to 0.5 μg/mL and incubated in a final volume of 100 μL SpA buffer (10 mM potassium hydrogen phosphate anhydrous [K2HPO4], 10 mM potassium Phosphate Monobasic [KH2PO4], 2 mM EDTA pH 7.1, 50 mM NaCl, 1 mM DTT, 2 mM 3-[(3-cholamidopropyl)dimethylammonio]-1-propanesulfonate (CHAPS)) containing Protein-A coupled scintillant filled YtSi SpA beads (GE Healthcare), to a final concentration of 1 mg/mL and Goat anti-GST antibody (GE Healthcare) to a final concentration of 5 μg/mL. […] Test compounds were assayed over a concentration range. After incubation, the assay plates were read on a Packard TopCount.

SMILES | Ki (read-out: LXRβ pKi (converted)) [nM] | Ki [nM]
O=C(Nc1ccc(CC2CCN(Cc3ccc(C(O)(C(F)(F)F)C(F)(F)F)cc3)CC2)cc1F)NC1COC1 [Example 12AE, 1-(2-Fluoro-4-((1-(4-(1,1,1,3,3,3-hexafluoro-2-hydroxypropan-2-yl)benzyl)piperidin-4-yl)methyl)phenyl)-3-(oxetan-3-yl)urea] | 21.9 | 
O=C(Nc1ccncn1)Nc1ccc(CC2CCN(Cc3ccc(C(O)(C(F)(F)F)C(F)(F)F)cc3)CC2)cc1F [Example 13B, 1-(2-Fluoro-4-((1-(4-(1,1,1,3,3,3-hexafluoro-2-hydroxypropan-2-yl)benzyl)piperidin-4-yl)methyl)phenyl)-3-(pyrimidin-4-yl)urea] | 9.77 | 
O=C(Nc1ccc(OC2CCN(Cc3ccc(C(O)(C(F)(F)F)C(F)(F)F)cc3)CC2)cc1)Nc1ccncn1 [Example 2E, 1-(4-(1-(4-(1,1,1,3,3,3-Hexafluoro-2-hydroxypropan-2-yl)benzyl)piperidin-4-yloxy)phenyl)-3-(pyrimidin-4-yl)urea] | 3.02 | 
O=C(Nc1ccc(CC2CCN(Cc3ccc(C(O)(C(F)(F)F)C(F)(F)F)cc3)CC2)cc1)Nc1ccncc1F [Example 6S, 1-(3-Fluoropyridin-4-yl)-3-(4-((1-(4-(1,1,1,3,3,3-hexafluoro-2-hydroxypropan-2-yl)benzyl)piperidin-4-yl)methyl)phenyl)urea] | 7.41 | 
O=C(Nc1ccc(CC2CCN(Cc3ccc(C(O)(C(F)(F)F)C(F)(F)F)cc3)CC2)cc1)NC1COC1 [Example 6P, 1-(4-((1-(4-(1,1,1,3,3,3-Hexafluoro-2-hydroxypropan-2-yl)benzyl)piperidin-4-yl)methyl)phenyl)-3-(oxetan-3-yl)urea] | 9.12 | 
O=C(Nc1ccncc1)Nc1ccc(CC2CCN(Cc3ccc(C(O)(C(F)(F)F)C(F)(F)F)cc3)CC2)cc1 [Example 7, 1-(4-((1-(4-(1,1,1,3,3,3-Hexafluoro-2-hydroxypropan-2-yl)benzyl)piperidin-4-yl)methyl)phenyl)-3-(pyridin-4-yl)urea] | 7.94 | 
CC(C)(O)CNC(=O)Nc1cc(F)c(CC2CCN(Cc3ccc(C(O)(C(F)(F)F)C(F)(F)F)cc3)CC2)cc1F [Example 16, 1-(2,5-Difluoro-4-((1-(4-(1,1,1,3,3,3-hexafluoro-2-hydroxypropan-2-yl)benzyl)piperidin-4-yl)methyl)phenyl)-3-(2-hydroxy-2-methylpropyl)urea] | 24.5 | 
O=C(Nc1ccc(CC2CCN(Cc3ccc(C(O)(C(F)(F)F)C(F)(F)F)cc3)CC2)cc1F)NC1CCOCC1 [Example 12AG, 1-(2-Fluoro-4-((1-(4-(1,1,1,3,3,3-hexafluoro-2-hydroxypropan-2-yl)benzyl)piperidin-4-yl)methyl)phenyl)-3-(tetrahydro-2H-pyran-4-yl)urea] | 21.9 | 
CC(C)(O)CNC(=O)Nc1ccc(CC2CCN(Cc3ccc(C(O)(C(F)(F)F)C(F)(F)F)cc3)CC2)cc1F [Example 12AC, 1-(2-Fluoro-4-((1-(4-(1,1,1,3,3,3-hexafluoro-2-hydroxypropan-2-yl)benzyl)piperidin-4-yl)methyl)phenyl)-3-(2-hydroxy-2-methylpropyl)urea] | 17 | 
O=C(Nc1ccc(OC2CCN(Cc3ccc(C(O)(C(F)(F)F)C(F)(F)F)cc3)CC2)cc1)NC1CCOCC1 [Example 1C, 1-(4-(1-(4-(1,1,1,3,3,3-Hexafluoro-2-hydroxypropan-2-yl)benzyl)piperidin-4-yloxy)phenyl)-3-(tetrahydro-2H-pyran-4-yl)urea] | 9.77 | 
O=C(Nc1ccc(OC2CCN(Cc3ccc(C(O)(C(F)(F)F)C(F)(F)F)cc3)CC2)cc1)Nc1ccncc1F [Example 2C, 1-(3-Fluoropyridin-4-yl)-3-(4-(1-(4-(1,1,1,3,3,3-hexafluoro-2-hydroxypropan-2-yl)benzyl)piperidin-4-yloxy)phenyl)urea] | 2 | 
O=C(Nc1ccncc1)Nc1ccc(CC2CCN(Cc3ccc(C(O)(C(F)(F)F)C(F)(F)F)cc3)CC2)cc1F [Example 13, 1-(2-Fluoro-4-((1-(4-(1,1,1,3,3,3-hexafluoro-2-hydroxypropan-2-yl)benzyl)piperidin-4-yl)methyl)phenyl)-3-(pyridin-4-yl)urea] | 5.5 | 
O=C(Nc1ccc(OC2CCN(Cc3ccc(C(O)(C(F)(F)F)C(F)(F)F)cc3)CC2)cc1)Nc1ccnnc1 [Example 1F, 1-(4-(1-(4-(1,1,1,3,3,3-Hexafluoro-2-hydroxypropan-2-yl)benzyl)piperidin-4-yloxy)phenyl)-3-(pyridazin-4-yl)urea] |  | 5.89
O=C(Nc1ccc(CC2CCN(Cc3ccc(C(O)(C(F)(F)F)C(F)(F)F)cc3)CC2)cc1F)N[C@H]1CCOC1 [Example 12F, (S)-1-(2-Fluoro-4-((1-(4-(1,1,1,3,3,3-hexafluoro-2-hydroxypropan-2-yl)benzyl)piperidin-4-yl)methyl)phenyl)-3-(tetrahydrofuran-3-yl)urea] | 17 | 
Cc1cc(NC(=O)Nc2ccc(CC3CCN(Cc4ccc(C(O)(C(F)(F)F)C(F)(F)F)cc4)CC3)cc2F)no1 [Example 12E, 1-(2-Fluoro-4-((1-(4-(1,1,1,3,3,3-hexafluoro-2-hydroxypropan-2-yl)benzyl)piperidin-4-yl)methyl)phenyl)-3-(5-methylisoxazol-3-yl)urea] | 9.55 | 
O=C(Nc1cnoc1)Nc1ccc(CC2CCN(Cc3ccc(C(O)(C(F)(F)F)C(F)(F)F)cc3)CC2)cc1F [Example 12D, 1-(2-Fluoro-4-((1-(4-(1,1,1,3,3,3-hexafluoro-2-hydroxypropan-2-yl)benzyl)piperidin-4-yl)methyl)phenyl)-3-(isoxazol-4-yl)urea] | 4.9 | 
O=C(Nc1ccc(CC2CCN(Cc3ccc(C(O)(C(F)(F)F)C(F)(F)F)cc3)CC2)cc1)Nc1ccncn1 [Example 7B, 1-(4-((1-(4-(1,1,1,3,3,3-Hexafluoro-2-hydroxypropan-2-yl)benzyl)piperidin-4-yl)methyl)phenyl)-3-(pyrimidin-4-yl)urea] | 4.27 | 
CC(O)(CNC(=O)Nc1ccc(CC2CCN(Cc3ccc(C(O)(C(F)(F)F)C(F)(F)F)cc3)CC2)cc1F)C(F)(F)F (centres unmarked) [Example 12AA, 1-(2-Fluoro-4-((1-(4-(1,1,1,3,3,3-hexafluoro-2-hydroxypropan-2-yl)benzyl)piperidin-4-yl)methyl)phenyl)-3-(3,3,3-trifluoro-2-hydroxy-2-methylpropyl)urea] | 5.75 | 
O=C(NCC(O)C(F)(F)F)Nc1ccc(CC2CCN(Cc3ccc(C(O)(C(F)(F)F)C(F)(F)F)cc3)CC2)cc1F (centres unmarked) [Example 12I, 1-(2-Fluoro-4-((1-(4-(1,1,1,3,3,3-hexafluoro-2-hydroxypropan-2-yl)benzyl)piperidin-4-yl)methyl)phenyl)-3-(3,3,3-trifluoro-2-hydroxypropyl)urea] | 2.75 | 
CC(C)(O)CNC(=O)Nc1ccc(OC2CCN(Cc3ccc(C(O)(C(F)(F)F)C(F)(F)F)cc3)CC2)cc1 [Example 1D, 1-(4-(1-(4-(1,1,1,3,3,3-Hexafluoro-2-hydroxypropan-2-yl)benzyl)piperidin-4-yloxy)phenyl)-3-(2-hydroxy-2-methylpropyl)urea] | 11.5 | 
O=C(Nc1ccncc1)Nc1ccc(OC2CCN(Cc3ccc(C(O)(C(F)(F)F)C(F)(F)F)cc3)CC2)cc1 [Example 2, 1-(4-(1-(4-(1,1,1,3,3,3-Hexafluoro-2-hydroxypropan-2-yl)benzyl)piperidin-4-yloxy)phenyl)-3-(pyridin-4-yl)urea] | 2.04 | 
CC(O)(CNC(=O)Nc1cc(F)c(CC2CCN(Cc3ccc(C(O)(C(F)(F)F)C(F)(F)F)cc3)CC2)cc1F)C(F)(F)F (centres unmarked) [Example 16B, 1-(2,5-Difluoro-4-((1-(4-(1,1,1,3,3,3-hexafluoro-2-hydroxypropan-2-yl)benzyl)piperidin-4-yl)methyl)phenyl)-3-(3,3,3-trifluoro-2-hydroxy-2-methylpropyl)urea] | 7.94 | 
CC(C)(O)CNC(=O)Nc1ccc(CC2CCN(Cc3ccc(C(O)(C(F)(F)F)C(F)(F)F)cc3)CC2)cc1Cl [Example 17, 1-(2-Chloro-4-((1-(4-(1,1,1,3,3,3-hexafluoro-2-hydroxypropan-2-yl)benzyl)piperidin-4-yl)methyl)phenyl)-3-(2-hydroxy-2-methylpropyl)urea] | 6.03 | 
